From patent US12103900B2, “Environment-friendly process for selective acylation of aminophenol” (LAXMI ORGANIC INDUSTRIES LTD, priority 2020, dated 2024)

Experiment: Analysis of solubility of paracetamol batches (Table 2)
Format: physicochemical
Settings: limit: soluble in ethanol (95%) and in acetone, sparingly soluble in water, very slightly soluble in dichloro-methane and ether
Procedure: For the analysis of solubility, the paracetamol obtained using the present invention should be soluble in ethanol (95%) and soluble in acetone, sparingly soluble in water, very slightly soluble in dichloro-methane and ether. For identification purpose, the IR spectra should match the standard IR spectrum. The impurities were determined according to European and Indian pharmacopeia.

SMILES: CC(=O)Nc1ccc(O)cc1 [Ex. 9, N-acetyl-para-aminophenol]
- Solubility: Complies
